Measured values reported in patent publication US20140363845A1, “CHOLESTEROL-BASED MEDIA SUPPLEMENTS FOR CELL CULTURE” (Biogen Idec MA Inc., priority 2011, published 2014).

Assays:
[1] = medium hold study: cholesterol adsorption in disposable WAVE Bioreactor bag; format: physicochemical; settings: medium with 2.5 mg/L cholesterol (1 ml GCLC/liter), after 22 hours of incubation in 2 L WAVE Bioreactor bag
Protocol: (§1) The rate of cholesterol depletion from the culture medium in single-use disposable bioreactor bags was determined. A medium hold study was performed in which 1.4 L of fresh pre-warmed culture medium containing 2.5 mg/L cholesterol (1 ml GCLC/liter medium) was added into a 2 L WAVE BIOREACTOR™ bag. The bag was then incubated under standard culture conditions, and 200 ml medium aliquots were aseptically removed from the bag at 15 min, 4 h, 7.5 h and 22 h incubation times. The medium aliquots at each time point were analyzed for cholesterol concentration (FIG. 1) and used to inoculate shake flask cultures seeded at 4×10^5 cells/ml. Shake-flask cultures were passaged for three days under standard conditions. A shake-flask control culture (no prior exposure to WAVE Bioreactor™ bag) containing 2.5 mg/L cholesterol (1 ml GCLC per liter medium) was seeded in parallel. Viable cell density and viability were measured every 24 hours (FIG. 2).
(§2) Viable cell density was determined using a Cedex Automated Cell Culture Analyzer (Roche Innovatis AG). pH and pCO2 were measured off-line using a BioProfile pHOx analyzer (Nova Biomedical). Cholesterol concentration was measured using GC analysis by Invitrogen Medium Analytical Services.

[2] = test system: NS0 cells; assay: shake flask cell growth in medium held in WAVE Bioreactor bag; design: species or system murine; settings: based on medium hold study and shake flask growth and viability data
Protocol: as §1
A cholesterol-dependent NS0 cell line expressing recombinant antibody was used in the study. The culture medium used was a chemically defined medium formulation. […]
as §2

[3] = test system: NS0 cells; assay: cholesterol dosing in high cell density pseudo-perfusion shake flask culture; format: cell-based, murine; settings: seed density 8×10^6 cells/ml
Protocol: FIG. 5A and FIG. 5B are graphs of a cholesterol dosing study in high cell density cell culture generated using pseudo-perfusion mode. […] Pseudo-perfusion cultures were established in shake flasks using growth medium supplement with GCLC at the following concentrations: 2.5 mg/L (▪), 7.5 mg/L (▴), 10.0 mg/L (0) to 12.5 mg/L (∘). Full volume medium exchanges were carried out on a daily basis. […] There was full volume exchange of medium in the shake flasks on a daily basis. The initial seed density was 8×10^6 cells/ml, and one volume of fresh growth medium was exchanged daily starting on day 1 post inoculation.

[4] = test system: NS0 cells; settings: ethanol dose study
Protocol: Cells were suspended in fresh medium containing increased amount of GCLC at concentrations of 5 mg/L and 7.5 mg/L and then incubated for 3 days in 2 L bags under standard cell culture conditions.

Row | Structure (SMILES) | cholesterol concentration in the medium [1] | cholesterol concentration in the medium to be maintained to support cell growth [2] | support of cell growth ([3]; 2.5 mg total cholesterol/L, daily full volume medium exchange) | cholesterol concentration required to support growth ([3]; high cell density pseudo-perfusion culture) [mg/L] | ethanol concentration at which cell growth was not inhibited [4]
1 | CC(C)CCC[C@@H](C)[C@H]1CC[C@H]2[C@@H]3CC=C4C[C@@H](O)CC[C@]4(C)[C@H]3CC[C@]12C [cholesterol] | below detectable limits | above 1.0 mg/L | insufficient to support growth | > 7.5 | –
2 | CCO [ethanol] | – | – | – | – | below 2%
